From patent US20230381133A1, “TAU AND AMYLOID PROTEIN LOWERING COMPOUNDS AND METHODS OF USE” (Qatar Foundation for Education, Science and Community …, priority 2022, published 2023)

Legend:
Pick disease patient = assay: Treatment of a Pick disease patient; format: in vivo; conditions: compared to a non-treated patient
Method: A therapeutically effective amount of the TA analog 2-(2-cyanophenylthio) benzoic acid is administered to a Pick disease patient.

AD patient = assay: Treatment of an AD patient; format: in vivo; conditions: compared to a non-treated patient
Method: A therapeutically effective amount of the TA analog 2-(2-cyanophenylthio) benzoic acid is administered to an AD patient.

PSP patient = assay: Treatment of a Progressive Supranuclear Palsy (PSP) patient; format: in vivo; conditions: compared to a non-treated patient
Method: A therapeutically effective amount of the TA analog 2-(2-cyanophenylthio) benzoic acid is administered to a PSP patient.

[1] = test system: corticobasal degeneration patient; assay: Treatment of a corticobasal degeneration patient; format: in vivo; conditions: compared to a non-treated patient
Method: A therapeutically effective amount of the TA analog 2-(2-cyanophenylthio) benzoic acid is administered to a corticobasal degeneration patient.

Down's Syndrome patient = assay: Treatment of a Down's Syndrome patient; format: in vivo; conditions: compared to a non-treated patient
Method: A therapeutically effective amount of the TA analog 2-(2-cyanophenylthio) benzoic acid is administered to a Down's Syndrome patient.

bvFTLD patient = assay: Treatment of a Behavioral Variant Frontotemporal Dementia (bvFTLD) patient; format: in vivo; conditions: compared to a non-treated patient
Method: A therapeutically effective amount of the TA analog 2-(2-cyanophenylthio) benzoic acid is administered to a bvFTLD patient.

CTE patient = assay: Treatment of a Chronic Traumatic Encephalopathy (CTE) patient; format: in vivo; conditions: compared to a non-treated patient
Method: A therapeutically effective amount of the TA analog 2-(2-cyanophenylthio) benzoic acid is administered to a CTE patient.

FTLD patient = assay: Treatment of a Frontotemporal Lobar Degeneration (FTLD) patient; format: in vivo; conditions: compared to a non-treated patient
Method: A therapeutically effective amount of the TA analog 2-(2-cyanophenylthio) benzoic acid is administered to an FTLD patient.

TBI patient = assay: Treatment of a Traumatic Brain Injury (TBI) patient; format: in vivo; conditions: compared to a non-treated patient
Method: A therapeutically effective amount of the TA analog 2-(2-cyanophenylthio) benzoic acid is administered to a TBI patient.

SP1 = SP1 (Homo sapiens, UniProt P08047); conditions: background statement; cited from earlier work
[2] = background statement; cited from earlier work

Chain of SP1 (P08047 whole entry): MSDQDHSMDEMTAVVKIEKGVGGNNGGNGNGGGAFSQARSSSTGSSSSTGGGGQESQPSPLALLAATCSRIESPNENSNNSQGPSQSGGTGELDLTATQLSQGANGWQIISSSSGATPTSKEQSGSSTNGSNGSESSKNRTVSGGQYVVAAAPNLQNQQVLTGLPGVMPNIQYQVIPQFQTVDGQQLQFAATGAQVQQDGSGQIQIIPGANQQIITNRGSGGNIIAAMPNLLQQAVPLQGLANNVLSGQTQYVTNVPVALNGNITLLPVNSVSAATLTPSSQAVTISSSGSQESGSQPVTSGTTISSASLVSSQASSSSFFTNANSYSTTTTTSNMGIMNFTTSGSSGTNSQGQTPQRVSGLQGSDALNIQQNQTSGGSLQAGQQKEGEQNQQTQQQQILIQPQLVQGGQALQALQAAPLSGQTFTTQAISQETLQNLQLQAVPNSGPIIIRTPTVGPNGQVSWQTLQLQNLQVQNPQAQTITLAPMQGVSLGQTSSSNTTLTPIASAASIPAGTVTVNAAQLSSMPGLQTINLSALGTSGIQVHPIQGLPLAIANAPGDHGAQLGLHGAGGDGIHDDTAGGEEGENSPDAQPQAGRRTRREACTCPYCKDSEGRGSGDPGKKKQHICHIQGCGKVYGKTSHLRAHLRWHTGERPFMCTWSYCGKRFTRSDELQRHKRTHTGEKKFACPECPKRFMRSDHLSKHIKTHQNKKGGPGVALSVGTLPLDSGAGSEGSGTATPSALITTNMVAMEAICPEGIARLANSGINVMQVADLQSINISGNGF

N#Cc1ccccc1Sc1ccccc1C(=O)O [2-(2-cyanophenylthio) benzoic acid, 2-(2-cyanophenylthio)benzoic acid]
patient's symptoms (Pick disease patient): symptoms are reduced
patient's symptoms (AD patient): symptoms are reduced
patient's symptoms (PSP patient): symptoms are reduced
patient's symptoms [1]: symptoms are reduced
patient's symptoms (Down's Syndrome patient): symptoms are reduced
patient's symptoms (bvFTLD patient): symptoms are reduced
patient's symptoms (CTE patient): symptoms are reduced
patient's symptoms (FTLD patient): symptoms are reduced
patient's symptoms (TBI patient): symptoms are reduced

Cc1c(Cl)cccc1Nc1ccccc1C(=O)O [TA, Tolfenamic Acid]
interaction with SP1 (SP1): interact directly with SP1
ability to cross the blood brain barrier (BBB) [2]: cross the blood brain barrier
